Earlier results, collected in patent publication US7572596B2, “Modulation of the neuroendoctrine system as a therapy for motor neuron disease” (University of Pittsburgh of the Commonwealth System of …, priority 2004, dated 2009).

Columns and labels:
[1] = tested on: transgenic model for multiple sclerosis; details: direct administration; Fernandez et al, 2004
[2] = tested on: human ALS patients; details: 2003; for efficacy in human ALS patients: Groeneveld, Desnuelle, 2001
[3] = tested on: SOD1 transgenic mice; details: Groeneveld, 2003, Desnuelle, 2001

SMILES	axonal pathology [1]	remyelination [1]	efficacy in human ALS patients [2]	efficacy in relieving the symptoms of ALS [3]	life expectancy of ALS patients ([2]; ALS patients, Miller)
NC(Cc1cc(I)c(Oc2cc(I)c(O)c(I)c2)c(I)c1)C(=O)O (stereo not shown) [T4]	neuroprotective for axonal pathology	enhances remyelination	–	–	–
Cc1c(C)c2c(c(C)c1O)CC[C@@](C)(CCC[C@H](C)CCC[C@H](C)CCCC(C)C)O2 [a-tocopherol]	–	–	minimal efficacy	some efficacy	–
Nc1nc2ccc(OC(F)(F)F)cc2s1 [Riluzole]	–	–	–	–	extends life expectancy by only a few months
CN(CC(=O)O)C(=N)N [Creatine]	–	–	minimal efficacy	some efficacy	–
